Data published in ChEMBL document CHEMBL4354805, “Discovery of MK-8719, a Potent O-GlcNAcase Inhibitor as a Potential Treatment for Tauopathies” (J Med Chem, 2019).

What was measured:
[1] = target: T1, Beta-hexosaminidase subunit beta (Homo sapiens, UniProt P07686); experiment: Inhibition of human beta hexosaminidase assessed as inhibitory constant using 4-methylumbelliferyl N-acetyl-beta-D-glucosaminide dihydrate as substrate measured every 60 sec for 45 mins by fluorescence spectrophotometry
T1 sequence (P07686 whole entry): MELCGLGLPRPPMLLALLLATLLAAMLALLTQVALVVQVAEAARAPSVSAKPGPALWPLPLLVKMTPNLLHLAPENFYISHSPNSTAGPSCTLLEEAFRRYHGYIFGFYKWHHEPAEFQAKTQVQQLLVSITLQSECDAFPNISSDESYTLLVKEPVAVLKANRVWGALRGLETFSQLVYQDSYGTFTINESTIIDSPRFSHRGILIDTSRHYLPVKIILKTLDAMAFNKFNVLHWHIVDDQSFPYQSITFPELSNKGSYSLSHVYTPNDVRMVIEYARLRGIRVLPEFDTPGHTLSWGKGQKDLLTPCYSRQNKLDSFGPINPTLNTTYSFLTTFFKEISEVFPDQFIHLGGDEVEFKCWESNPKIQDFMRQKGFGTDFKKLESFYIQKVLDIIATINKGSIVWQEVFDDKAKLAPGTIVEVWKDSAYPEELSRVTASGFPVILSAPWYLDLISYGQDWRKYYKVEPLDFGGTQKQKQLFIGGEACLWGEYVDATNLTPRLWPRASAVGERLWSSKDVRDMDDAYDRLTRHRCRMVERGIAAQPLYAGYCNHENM

MDR1 = experiment: Apparent permeability in pig LLC-PK1 cells transfected with MDR1; assay type: ADME, cell-based, Sus scrofa
Protein O-GlcNAcase [2] = target: T2, Protein O-GlcNAcase (Rattus norvegicus, UniProt Q8VIJ5); experiment: Inhibition of OGA in rat PC12 cells assessed as OGlcNAcylated protein level incubated for 24 hrs by ELISA; assay type: cell-based
T2 sequence (Q8VIJ5 whole entry): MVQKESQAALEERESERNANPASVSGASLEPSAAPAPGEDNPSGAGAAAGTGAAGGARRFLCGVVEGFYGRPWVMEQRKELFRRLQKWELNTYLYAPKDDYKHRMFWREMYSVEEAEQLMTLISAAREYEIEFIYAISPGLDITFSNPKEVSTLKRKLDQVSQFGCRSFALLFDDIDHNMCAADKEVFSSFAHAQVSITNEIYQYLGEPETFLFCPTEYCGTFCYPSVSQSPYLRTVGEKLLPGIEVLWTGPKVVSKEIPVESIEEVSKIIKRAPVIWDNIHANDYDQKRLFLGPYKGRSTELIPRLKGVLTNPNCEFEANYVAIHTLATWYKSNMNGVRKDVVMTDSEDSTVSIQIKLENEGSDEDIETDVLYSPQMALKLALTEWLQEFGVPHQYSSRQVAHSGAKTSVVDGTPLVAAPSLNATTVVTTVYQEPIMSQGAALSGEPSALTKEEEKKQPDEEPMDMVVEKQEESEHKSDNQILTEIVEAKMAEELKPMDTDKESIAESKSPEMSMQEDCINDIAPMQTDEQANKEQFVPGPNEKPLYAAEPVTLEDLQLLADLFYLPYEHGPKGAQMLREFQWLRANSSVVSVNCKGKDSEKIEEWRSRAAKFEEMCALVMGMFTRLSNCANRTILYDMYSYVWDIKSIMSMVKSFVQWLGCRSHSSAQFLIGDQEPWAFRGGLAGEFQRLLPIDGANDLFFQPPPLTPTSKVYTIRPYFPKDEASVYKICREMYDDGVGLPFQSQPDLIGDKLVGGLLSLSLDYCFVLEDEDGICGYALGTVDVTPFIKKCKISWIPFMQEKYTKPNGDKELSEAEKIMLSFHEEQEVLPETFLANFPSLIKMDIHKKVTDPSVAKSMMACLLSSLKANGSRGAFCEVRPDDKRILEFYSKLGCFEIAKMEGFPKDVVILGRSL

Protein O-GlcNAcase [3] = target: T3, Protein O-GlcNAcase (Homo sapiens, UniProt O60502); experiment: Inhibition of recombinant human OGA
T3 sequence (O60502 whole entry): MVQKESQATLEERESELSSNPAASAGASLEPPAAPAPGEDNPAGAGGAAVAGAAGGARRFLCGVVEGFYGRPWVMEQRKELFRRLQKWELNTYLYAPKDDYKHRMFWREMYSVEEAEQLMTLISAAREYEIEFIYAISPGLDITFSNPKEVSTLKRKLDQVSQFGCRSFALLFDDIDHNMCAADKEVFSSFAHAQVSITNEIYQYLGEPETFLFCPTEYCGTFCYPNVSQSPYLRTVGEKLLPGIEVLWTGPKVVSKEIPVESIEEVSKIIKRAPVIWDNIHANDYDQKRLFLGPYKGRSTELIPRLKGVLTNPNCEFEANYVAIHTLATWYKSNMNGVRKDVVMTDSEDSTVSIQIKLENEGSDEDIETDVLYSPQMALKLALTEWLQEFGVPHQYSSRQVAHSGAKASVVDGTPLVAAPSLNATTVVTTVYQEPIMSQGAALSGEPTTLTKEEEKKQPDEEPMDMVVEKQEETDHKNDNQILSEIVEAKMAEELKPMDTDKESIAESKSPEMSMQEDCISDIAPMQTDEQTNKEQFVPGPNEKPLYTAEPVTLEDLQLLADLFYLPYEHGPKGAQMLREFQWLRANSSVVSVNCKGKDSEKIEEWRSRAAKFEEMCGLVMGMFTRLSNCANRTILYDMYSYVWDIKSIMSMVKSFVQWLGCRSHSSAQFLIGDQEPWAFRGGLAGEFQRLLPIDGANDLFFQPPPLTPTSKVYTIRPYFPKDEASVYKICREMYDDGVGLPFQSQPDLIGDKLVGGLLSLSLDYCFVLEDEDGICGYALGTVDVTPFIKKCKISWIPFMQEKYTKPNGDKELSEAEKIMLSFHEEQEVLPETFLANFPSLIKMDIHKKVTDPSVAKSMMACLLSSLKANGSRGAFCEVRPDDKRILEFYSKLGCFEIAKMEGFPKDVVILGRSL

[4] = Clearance in Wistar Han rat at 2 mg/kg, iv; assay type: ADME, organism-based; conditions: in vivo
[5] = Volume of distribution at steady state in Wistar Han rat at 2 mg/kg, iv or 3 mg/kg, po; assay type: ADME, organism-based; conditions: in vivo, read-out: Vdss
[6] = AUCN in Wistar Han rat at 3 mg/kg, po; assay type: ADME, organism-based; conditions: in vivo
[7] = Half life in Wistar Han rat at 2 mg/kg, iv; assay type: ADME, organism-based; conditions: in vivo
[8] = Oral bioavailability in Wistar Han rat at 3 mg/kg; assay type: ADME, organism-based; conditions: in vivo

Row | Structure (SMILES) | Ki [1] | Papp (MDR1) | EC50 (Protein O-GlcNAcase [2]) | Ki (Protein O-GlcNAcase [3]) | clearance [4] | Vd [5] | AUC/dose [6] | half-life [7] | bioavailability [8]
1 | OC[C@H]1O[C@@H]2SC(N3CC[C@@H](F)C3)=N[C@@H]2[C@@H](O)[C@@H]1O | > 10000 nM | – | – | – | – | – | – | – | –
2 | NC1=N[C@@H]2[C@@H](O)[C@H](O)[C@@H](C(F)F)O[C@@H]2S1 | > 10000 nM | 9.2 ×10⁻⁶ cm/s | 2400 nM | 760 nM | – | – | – | – | –
3 | OC[C@H]1O[C@@H]2SC(NCCF)=N[C@@H]2[C@@H](O)[C@@H]1O | > 10000 nM | 2.2 ×10⁻⁶ cm/s | 509 nM | 5.6 nM | 33.6 mL/min/kg | 1.33 L/kg | 0.903 µM·kg·h/mg | 1.29 h | 48.6%
4 | OC[C@H]1O[C@@H]2SC(N3CCCC3)=N[C@@H]2[C@@H](O)[C@@H]1O | > 10000 nM | – | – | – | – | – | – | – | –
5 | NC1=N[C@@H]2[C@@H](O)[C@H](O)[C@@H](CF)O[C@@H]2S1 | – | – | – | 1200 nM | – | – | – | – | –
6 | C=CCNC1=N[C@@H]2[C@@H](O)[C@H](O)[C@@H](C(F)F)O[C@@H]2S1 | > 10000 nM | 12 ×10⁻⁶ cm/s | – | 74 nM | – | – | – | – | –
7 | O[C@H]1[C@H](O)[C@@H](CF)O[C@@H]2SC(N3CCC3)=N[C@H]12 | > 10000 nM | – | – | 200 nM | – | – | – | – | –
8 | CCCNC1=N[C@@H]2C[C@H](O)[C@@H](CO)O[C@@H]2S1 | > 10000 nM | 2.5 ×10⁻⁶ cm/s | 224 nM | 50 nM | – | – | – | – | –
9 | CNC1=N[C@@H]2[C@@H](F)[C@H](O)[C@@H](CF)O[C@@H]2S1 | > 10000 nM | – | – | 50 nM | – | – | – | – | –
10 | OC[C@H]1O[C@@H]2SC(N3CCC(F)CC3)=N[C@@H]2[C@@H](O)[C@@H]1O | > 10000 nM | – | – | > 3000 nM | – | – | – | – | –
11 | CN(C)C1=N[C@@H]2[C@@H](F)[C@H](O)[C@@H](CO)O[C@@H]2S1 | > 10000 nM | – | – | 41 nM | – | – | – | – | –
12 | C=CCN(C)C1=N[C@@H]2[C@@H](O)[C@H](O)[C@@H](CO)O[C@@H]2S1 | 4500 nM | 0.8 ×10⁻⁶ cm/s | – | – | 45.8 mL/min/kg | 16.1 L/kg | 0.538 µM·kg·h/mg | 4.03 h | 108%
13 | NC1=N[C@@H]2C[C@H](O)[C@@H](CO)O[C@@H]2S1 | > 10000 nM | – | – | > 3000 nM | – | – | – | – | –
14 | CNC1=N[C@@H]2[C@@H](F)[C@H](O)[C@@H](CO)O[C@@H]2S1 | 8100 nM | – | 307 nM | 3 nM | – | – | – | – | –
15 | CC1CN(C2=N[C@@H]3[C@@H](O)[C@H](O)[C@@H](CO)O[C@@H]3S2)C1 | > 10000 nM | 2.4 ×10⁻⁶ cm/s | – | 72 nM | – | – | – | – | –
16 | OC[C@H]1O[C@@H]2SC(N3CC(F)C3)=N[C@@H]2[C@@H](O)[C@@H]1O | – | – | – | > 3000 nM | – | – | – | – | –
17 | CN(C)C1=N[C@@H]2C[C@H](O)[C@@H](C(F)F)O[C@@H]2S1 | > 10000 nM | 31 ×10⁻⁶ cm/s | – | > 3000 nM | – | – | – | – | –
18 | O[C@H]1[C@H](O)[C@@H](C(F)F)O[C@@H]2SC(N3CCC3)=N[C@H]12 | > 10000 nM | 18 ×10⁻⁶ cm/s | – | 26 nM | – | – | – | – | –
19 | CCCNC1=N[C@@H]2[C@@H](F)[C@H](O)[C@@H](CO)O[C@@H]2S1 | > 10000 nM | – | 445 nM | 14 nM | 48.1 mL/min/kg | 1.92 L/kg | 0.394 µM·kg·h/mg | 1.69 h | 30.1%
20 | C=CCNC1=N[C@@H]2[C@@H](O)[C@H](O)[C@@H](CF)O[C@@H]2S1 | > 10000 nM | – | – | 180 nM | – | – | – | – | –
21 | CN(C)C1=N[C@@H]2C[C@H](O)[C@@H](CO)O[C@@H]2S1 | > 10000 nM | – | – | – | 25.7 mL/min/kg | 2.49 L/kg | 2.26 µM·kg·h/mg | 1.95 h | 80.1%
22 | OC[C@H]1O[C@@H]2SC(N3CCCCC3)=N[C@@H]2[C@@H](O)[C@@H]1O | > 10000 nM | – | – | 1800 nM | – | – | – | – | –
23 | CNC1=N[C@@H]2[C@@H](F)[C@H](O)[C@@H](C(F)F)O[C@@H]2S1 | > 10000 nM | 22 ×10⁻⁶ cm/s | – | 58 nM | – | – | – | – | –
